{
  "source": "patent US9520611B2",
  "about": "“Redox flow battery” (SAMSUNG ELECTRONICS CO., LTD., priority 2013, dated 2016)",
  "key": {"[1]": {"test": "Cyclic voltammetry of organic electrolytic solution", "format": "physicochemical", "details": "unit inferred; Ag/Ag+ reference electrode (0.3 M AgNO3 in acetonitrile), carbon felt working electrode", "source_text": "For the purpose of measurement of cyclic voltammetry, a cell that includes an Ag/Ag^+ electrode prepared by dissolving 0.3 M AgNO3 in an acetonitrile solvent as a reference electrode, a carbon felt as a working electrode, and platinum as a counter electrode was used.\nReferring to FIGS. 2A to 2C, the graphs of an electrolyte including a metal-ligand coordination compound show a reversible oxidation/reduction peak."}, "[2]": {"test": "Solubility measurement in a non-aqueous polar solvent", "format": "physicochemical", "procedure": "A density of the solution was measured and calculated in a molar concentration."}, "[3]": {"details": "in 50 mL acetonitrile and propylene carbonate 1:1, calculated in a molar concentration, unit not given"}},
  "note": "Read-outs that look alike come from different tables or passages of the source.",
  "data": [
    {"molecule": "Cc1ccnc(-c2cc(C)ccn2)c1.Cc1ccnc(-c2cc(C)ccn2)c1.O=S(=O)([N-]S(=O)(=O)C(F)(F)F)C(F)(F)F.O=S(=O)([N-]S(=O)(=O)C(F)(F)F)C(F)(F)F.[Fe+2].c1ccc(-c2ccccn2)nc1", "note": "[Preparation Example 1, Fe^2+-(4,4′-diMebpy)2 (bpy) [TFSI]2]", "values": [
      {"measurement": "E^0", "setting": "[1]", "value": 0.56, "unit": "V"}
    ]},
    {"molecule": "O=S(=O)([N-]S(=O)(=O)C(F)(F)F)C(F)(F)F.O=S(=O)([N-]S(=O)(=O)C(F)(F)F)C(F)(F)F.O=[N+]([O-])c1cc2cccnc2c2ncccc12.[Fe+2].c1ccc(-c2ccccn2)nc1.c1ccc(-c2ccccn2)nc1", "note": "[Preparation Example 2, Fe^2+-(5-NO2-phenanthroline)(bpy)2 [TFSI]2]", "values": [
      {"measurement": "E^0", "setting": "[1]", "value": 0.72, "unit": "V"}
    ]},
    {"molecule": "Clc1cc(-c2ccccn2)nc(-c2ccccn2)c1.O=S(=O)([N-]S(=O)(=O)C(F)(F)F)C(F)(F)F.O=S(=O)([N-]S(=O)(=O)C(F)(F)F)C(F)(F)F.[Fe+2].c1ccc(-c2cccc(-c3ccccn3)n2)nc1", "note": "[Preparation Example 3, Fe^2+-(terpy)(4′-chloro-terpy) [TFSI]2]", "values": [
      {"measurement": "E^0", "setting": "[1]", "value": 0.72, "unit": "V"},
      {"measurement": "Solubility", "setting": "[2]", "value": 1.33},
      {"measurement": "Solubility compared with the compounds that include identical ligands (dipole moment sum 0)", "setting": "[2]", "value": "higher solubility"}
    ]},
    {"molecule": "O=S(=O)([N-]S(=O)(=O)C(F)(F)F)C(F)(F)F.O=S(=O)([N-]S(=O)(=O)C(F)(F)F)C(F)(F)F.[Fe+2].c1ccc(-c2ccccn2)nc1.c1ccc(-c2ccccn2)nc1.c1ccc(-c2ccccn2)nc1", "note": "[Preparation Example 4, Fe^2+-(bpy)3 [TFSI]2]", "values": [
      {"measurement": "E^0", "setting": "[1]", "value": 0.68, "unit": "V"}
    ]},
    {"molecule": "Cc1ccnc(-c2cc(C)ccn2)c1.Cc1ccnc(-c2cc(C)ccn2)c1.Cc1ccnc(-c2cc(C)ccn2)c1.O=S(=O)([N-]S(=O)(=O)C(F)(F)F)C(F)(F)F.O=S(=O)([N-]S(=O)(=O)C(F)(F)F)C(F)(F)F.[Fe+2]", "note": "[Preparation Example 5, Fe^2+-(4,4′-diMe-bpy)3 [TFSI]2]", "values": [
      {"measurement": "E^0", "setting": "[1]", "value": 0.43, "unit": "V"},
      {"measurement": "Solubility", "setting": "[2]", "value": 0.65}
    ]},
    {"molecule": "O=S(=O)([N-]S(=O)(=O)C(F)(F)F)C(F)(F)F.O=S(=O)([N-]S(=O)(=O)C(F)(F)F)C(F)(F)F.[Fe+2].c1ccc(-c2cccc(-c3ccccn3)n2)nc1.c1ccc(-c2cccc(-c3ccccn3)n2)nc1", "note": "[Preparation Example 7, Fe^2+-(terpy)2 [TFSI]2]", "values": [
      {"measurement": "E^0", "setting": "[1]", "value": 0.7, "unit": "V"},
      {"measurement": "Solubility", "setting": "[2]; [3]", "value": 1.20}
    ]},
    {"molecule": "Clc1cc(-c2ccccn2)nc(-c2ccccn2)c1.Clc1cc(-c2ccccn2)nc(-c2ccccn2)c1.O=S(=O)([N-]S(=O)(=O)C(F)(F)F)C(F)(F)F.O=S(=O)([N-]S(=O)(=O)C(F)(F)F)C(F)(F)F.[Fe+2]", "note": "[Preparation Example 8, Fe^2+-(4′-chloro-terpy)2 [TFSI]2]", "values": [
      {"measurement": "E^0", "setting": "[1]", "value": 0.78, "unit": "V"},
      {"measurement": "Solubility", "setting": "[2]; [3]", "value": 0.75}
    ]},
    {"molecule": "Fe^2+-(NO2-phenanthroline)3 [TFSI]2 [Preparation Example 6]", "values": [
      {"measurement": "E^0", "setting": "[1]", "value": 0.88, "unit": "V"},
      {"measurement": "Solubility", "setting": "[2]", "value": 1020, "unit": "mM"}
    ]}
  ]
}
